Series [1] concerns T. b. brucei strain Lister 427 (s427-WT). The series is described as follows: resazurin EC50 assay, T. b. brucei wild-type bloodstream forms. Format: cell-based, Trypanosoma brucei brucei. The conditions noted are these: 48 h + 24 h resazurin, average and SEM, at least three determinations, NE = no effect on cell viability at 100 µM; for EC50: Trypanosoma brucei, 72 h. For orientation: The colour change of resazurin is a common sign of viable cells or microbes.

The test system of series [2] is T. brucei B48. The series is described as follows: microbe, parasite or virus in culture. Format: cell-based, Trypanosoma brucei brucei. The conditions noted are these: Trypanosoma brucei, read-out: T. Brucei, EC50, B48.
Series [3] concerns T. brucei 2T1 PYR6-5 −/−. The series is described as follows: microbe, parasite or virus in culture. The format is cell-based, Trypanosoma brucei brucei. The conditions noted are these: for EC50: Trypanosoma brucei, read-out: T. Brucei, EC50, 2T1 PYR6-5 −/−.
For series [4], the system named is Tbb-5FURes. The series is described as follows: microbe, parasite or virus in culture. The format is cell-based, Trypanosoma brucei brucei. The conditions noted are these: for EC50: Trypanosoma brucei, read-out: T. Brucei, EC50, Tbb-5FURes.
Series [5] deals with L. mexicana 5FURes (Lmex5FURes). The conditions noted are these: differences in EC50 between wild-type and 5FU-resistant L. mexicana.
Procedure: (§1) Promastigotes of Leishmania mexicana strain MNY/BZ/62/M379 was cultured in a minimal essential medium, HO-MEMO-MEME, supplemented with 10% FBS and 1% of a penicillin/streptomycin solution (Gibco) as described previously [39] at 25 °C. The L. mexicana 5FURes strain was the same strain but adapted in vitro to high levels of 5FU exactly as described for T. brucei [12].
(§2) The resazurin assay for L. mexicana promastigotes was performed exactly as for T. b. brucei, except that incubation times of 72 and 48 h were used before and after the addition of resazurin, respectively, due to the slower metabolism of the dye by Leishmania promastigotes [42].
Series [6] has the same test system. As to the kind of experiment: microbe, parasite or virus in culture. The conditions noted are these: Leishmania mexicana, read-out: L. Mexicana 5FUR, EC50.
Procedure: as §1, §2
Series [7] deals with U-937 cells. The series is described as follows: U-937 cytotoxicity (XTT). Format: cell-based. The conditions noted are these: 6 days incubation. Here is the method: The U-937 cells used in the cytotoxicity evaluation were obtained from the AIDS Research and Reference Program. The cells were cultured as indicated by the supplier in RPMI-1640 supplemented with 10% heat inactivated FBS, 1% penicillin/streptomycin solution, and 1% L-glutamine.
U-937 cells plated at 2.5 × 10^3 cells/well in a volume of 100 µL were incubated with serially diluted test compounds in a volume of 100 µL for 6 days at 37 °C/5% CO2. Following the incubation, the cells were stained by adding 50 μL tetrazolium dye XTT (Sigma) solution at 5 mg/mL to determine cellular viability and read at 460/650 nm on a spectrophotometer. Toxicity values were calculated using linear regression analysis.

Series [8] deals with M. tuberculosis ATCC 25,177 (H37Ra). As to the kind of experiment: microbe, parasite or virus in culture. Format: cell-based, Mycobacterium tuberculosis. The conditions noted are these: Mycobacterium tuberculosis, read-out: M. Tuberculosis 25,177 MIC.
Series [9] relates to M. tuberculosis H37Rv. As to the kind of experiment: microbe, parasite or virus in culture. The conditions noted are these: Mycobacterium tuberculosis, control drugs at critical concentrations. The format is cell-based.
Series [10] relates to M. tuberculosis MS-115. The series is described as follows: microbe, parasite or virus in culture. The conditions noted are these: Mycobacterium tuberculosis, MS115, read-out: M. Tuberculosis MS-115 MIC. Format: cell-based.
The test system of series [11] is Trypanosoma and Leishmania. The arrangement: method as in PMID 28571825. The conditions noted are these: equivalent activity against both pathogens; cited from earlier work.
Series [12] concerns T. vaginalis strain G3. As to the kind of experiment: resorufin-based EC50 assay, T. vaginalis. The conditions noted are these: Trichomonas vaginalis, read-out: Trichomonas Vaginalis, EC50.
Procedure: The standard metronidazole-susceptible T. vaginalis strain G3was originally obtained from Jeremy Mottram (University of York, UK) and cultured in a modification of Diamond′s medium supplemented with 10% horse serum with a composition as described [40] at 37 °C under anaerobic conditions. Cultures were passaged daily.
Drugs were tested on T. vaginalis using a resorufin-based assay that we developed [40, 43]. The assay is based on the principle that live T. vaginalis trophozoites are, almost uniquely, able to reduce fluorescent, pink resorufin to non-fluorescent, colorless dihydro-resorufin. This conversion was measured as a dose-dependent increase in fluorescence (with dead cells unable to metabolize the fluorophore; λexc 544 nm, λem 599 nm), resulting in a sigmoid curve with variable slope that yielded EC50 values (Prism 6.0). Plates contained 11 doubling dilutions (1 row) and no-drug control for each compound starting at 100 µM under anaerobic conditions as described [40, 43]. Fluorescence was determined in a PheraStar plate reader (BMG Labtech).
Series [13] relates to L. mexicana WT promastigotes (strain MNY/BZ/62/M379). As to the kind of experiment: resazurin EC50 assay, L. mexicana promastigotes wild-type. The conditions noted are these: 72 h + 48 h resazurin, average and SEM, NE = no effect on cell viability at 100 µM.
Procedure: as §1, §2
The subject of series [14] is Staphylococcus aureus NRS384. As to the kind of experiment: microbe, parasite or virus in culture. Format: cell-based. The conditions noted are these: NRS384, read-out: extrapolated IC50, growth of S. aureus NRS384.

The structures appear in SMILES notation. Values after ≈ are worked out from the molar mass of the structure shown. Values joined by “and” are separate entries in the source; they are usually repeats but may differ in a detail not shown here. Identical values can stand only once. Where only a bound is given, the exact number is not on record here.

On to `O=c1[nH]cc(F)c(=O)[nH]1` [5-Fluorouracil, reference compound], for which the EC50 in [1] is 87 ± 6.4 µM; in series [2], 101 ± 7 µM; in [3] it was 2.33 ± 0.35 µM; in series [4], 2500 ± 76 µM; in series [6], 3520 ± 440 µM. Moreover, in series [3] (sensitization for 5FU, reduction in trypanocidal activity for test compounds), the “fold difference in EC50, PYR6-5 −/− versus wild-type” value was 37.4 fold. Moreover, the “fold difference in EC50, 5FURes versus wild-type” value in [4] (resistance to 5FU, reduction in trypanocidal activity for test compounds) stood at 28.7 fold. Also, the “fold resistance, Lmex5FURes versus wild-type” value in series [5] is greater than 400 fold.

As to `CCCCCCCCCCCCC#Cc1cn([C@H]2C=C[C@@H](O)C2)c(=O)n([C@H]2C=C[C@@H](O)C2)c1=O` [Compound 1, 1-[4′-Hydroxy-2′-cyclopenten-1′-yl]-3-(4′′-hydroxy-2′′-cyclopent-en-1′′-yl)-5-tetradecynyluracil], the EC50 is 8 ± 0.1 µM in [1]; 9 ± 0.1 µM in series [2]; 9.2 ± 0.4 µM in [3]; 7.5 ± 0.1 µM in series [4]; 8 to 11.9 µM in series [11]; 11.4 ± 0.3 µM in [6]. The “U-937 Cells TC50” value in series [7] turned out to be 66.3 µM. Besides, the MIC is 250 µM and 117 µg/mL in [8]; 50 µg/mL (≈ 107 µM) in series [9]; greater than 50 µg/mL in [10].

With `O=c1c(C#CCO)cn([C@H]2C=C[C@@H](O)C2)c(=O)n1[C@H]1C=C[C@@H](O)C1` [Compound 9, 1-[4′-Hydroxy-2′-cyclopenten-1′-yl]-3-(4′′-hydroxy-2′′-cyclopent-en-1′′-yl)-5-(hydroxypropynyl)uracil], the EC50 in [1] was 66.8 ± 6.6 µM; in series [2], 76.8 ± 4.4 µM; in series [3], 59.9 ± 1 µM; in [4], 74.9 ± 3.5 µM; in series [6], greater than 100 µM; in series [12], 84.8 ± 0.004 µM. In addition, the “U-937 Cells TC50” value in series [7] is on record as greater than 100 µM. Further, in [8], the MIC was 1000 µM and 330 µg/mL. Besides, the “L. Mexicana WT, EC50” value in series [13] was “did not show any antileishmanial activity at all”.

In general, IC50 refers to the midpoint of a concentration-inhibition curve. `CCOC(=O)C#Cc1cn([C@H]2C=C[C@@H](O)C2)c(=O)n([C@H]2C=C[C@@H](O)C2)c1=O` [Compound 11, 1-[4′-Hydroxy-2′-cyclopenten-1′-yl]-3-(4′′-hydroxy-2′′-cyclopent-en-1′′-yl)-5-(ethyloxycarbonylpropynyl)uracil]: the “T. Brucei, EC50, S427-WT” value in series [1] is “little or no activity at the highest concentration tested”. Moreover, the EC50 in series [1] was greater than 100 µM; in series [2] it was greater than 100 µM; in series [3], greater than 100 µM; in series [4], greater than 100 µM; in series [6] it was greater than 100 µM; in [12], 53.8 ± 0.74 µM. The “U-937 Cells TC50” value in [7] is recorded as 21.6 µM. Also, the MIC in series [8] was 1000 µM and 372 µg/mL. Moreover, in series [14], the IC50 is roughly 100 µM.

The values above are taken from article PMC6804079, “Investigation of 5’-Norcarbocyclic Nucleoside Analogues as Antiprotozoal and Antibacterial Agents” (Molecules, 2019).
